# How the values were obtained:
# [1] = molecular target: T1, truncated, His-tagged human CYP17A1 (Homo sapiens, UniProt P05093, C22K/P23T/R20A/R21K); test: UV/vis spectral shift ligand binding assay
# T1 sequence (P05093 with tags, fused parts or gaps limits assumed): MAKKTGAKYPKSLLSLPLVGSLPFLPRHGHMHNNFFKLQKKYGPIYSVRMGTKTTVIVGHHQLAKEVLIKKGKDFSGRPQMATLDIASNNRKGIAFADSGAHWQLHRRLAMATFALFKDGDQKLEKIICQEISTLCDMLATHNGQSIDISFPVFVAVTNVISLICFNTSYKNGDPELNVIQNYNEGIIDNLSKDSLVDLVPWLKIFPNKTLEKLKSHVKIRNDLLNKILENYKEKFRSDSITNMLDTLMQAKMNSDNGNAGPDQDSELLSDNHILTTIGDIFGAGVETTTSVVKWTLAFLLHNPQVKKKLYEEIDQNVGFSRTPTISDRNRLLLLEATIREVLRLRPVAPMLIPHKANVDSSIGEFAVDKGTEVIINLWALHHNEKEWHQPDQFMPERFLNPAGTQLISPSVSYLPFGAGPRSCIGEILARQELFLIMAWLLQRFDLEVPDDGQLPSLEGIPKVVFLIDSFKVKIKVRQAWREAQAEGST
# truncated human CYP17A1 = molecular target: T2, truncated human CYP17A1 (Homo sapiens, UniProt P05093, C22K/P23T/R20A/R21K); test: Progesterone 17α-hydroxylation, HPLC separation with UV detection; type: biochemical
# T2 sequence (P05093 with tags, fused parts or gaps limits assumed): T1 sequence (P05093 with tags, fused parts or gaps limits assumed)
Compound,Kd [1],IC50 (truncated human CYP17A1)
CC(=O)[C@H]1CC[C@H]2[C@@H]3CCC4=CC(=O)CC[C@]4(C)[C@H]3CC[C@]12C [progesterone],229 ± 14 nM,–
"C[C@]12CC[C@H](O)CC1=CC[C@@H]1[C@@H]2CC[C@]2(C)C(c3cccnc3)=CC[C@@H]12 [abiraterone, 17-(3-pyridyl)androsta-5,16-dien-3β-ol]",< 100 nM,201 ± 1 nM
"C[C@]12CC[C@H](O)CC1=CC[C@@H]1[C@@H]2CC[C@]2(C)C(n3cnc4ccccc43)=CC[C@@H]12 [TOK-001, 3β-hydroxy-17-(1H-benzimidazole-1-yl)androsta-5,16-diene]",< 100 nM,503 ± 1 nM
